Each structure is given as a SMILES string. Square brackets hold non-standard residues; d marks the D form. Peptide text beside a SMILES is read from it. Oic = O=C(O)[C@@H]1C[C@@H]2CCCC[C@@H]2N1; d2Nal = N[C@H](Cc1ccc2ccccc2c1)C(=O)O; αMeF = C[C@](N)(Cc1ccccc1)C(=O)O; Orn = NCCC[C@H](N)C(=O)O

Data set [1] deals with T1, BKB1 receptor (Oryctolagus cuniculus, UniProt P48748).
T1 construct: The rabbit aorta without endothelium (which contains only the BKB1 receptor); from tissue; host or cells: isolated rabbit aorta (rbA) without endothelium
T1 sequence (P48748 1-352): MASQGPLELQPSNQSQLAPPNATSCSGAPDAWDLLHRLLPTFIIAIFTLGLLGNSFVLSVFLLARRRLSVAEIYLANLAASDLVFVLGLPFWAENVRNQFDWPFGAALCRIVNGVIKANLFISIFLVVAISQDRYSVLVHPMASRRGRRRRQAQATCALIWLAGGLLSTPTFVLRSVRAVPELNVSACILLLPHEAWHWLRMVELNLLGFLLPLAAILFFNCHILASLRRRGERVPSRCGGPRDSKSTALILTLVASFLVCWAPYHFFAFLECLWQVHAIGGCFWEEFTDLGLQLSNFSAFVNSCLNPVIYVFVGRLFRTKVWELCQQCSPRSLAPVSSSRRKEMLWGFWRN
Description: Isolated rabbit aorta (rbA) organ bath, antagonist potency pA2. The following applies: rabbit aorta without endothelium; mean ± SEM of 4–7 experiments; read-out: Antagonist potencies (pA2) BKB1-R rbA (converted). It is filed as cell-based. The method, then:
(§1) Selected antagonists were tested for activities in three isolated organs: (1) the rabbit aorta (rbA), (2) the human umbilical vein (hUV) and (3) the rabbit jugular vein (rbJV).
(§2) All details regarding the procurements of human umbilical cords and rabbit vessels as well as, the procedures for preparing the isolated organs and the experimental protocols are described in these respective publications: rbA (Rioux et al. 1973, Can J Physiol Pharmacol 51, 114–121); hUV (Gobeil et al. 1996, Br J Pharmacol 118, 289–294), and rbJV (Gaudreau et al. 1981, Can J Physiol Pharmacol 59, 371–379).
The rabbit aorta without endothelium (which contains only the BKB1 receptor) was used to determine the antagonistic activities of each compound.
(§3) The rabbit jugular vein (a pure BKB2 receptor system) was used to exclude any action of the new compounds on the BKB2 receptor and thus establish their selectivity. All tissues were treated with captopril (1 μM) to prevent the degradation of the peptidic agonists.
(§4) Repeated applications of a single and double concentration of BK (on rbJV,) or of desArg^9BK (rbA and hUV) were made in the absence and in presence of the various peptides to evaluate their apparent affinities as antagonists, in terms of pA2 (-log10 of the molar concentration of antagonist that reduces the effect of a double concentration of agonist to that of a single one) (Schild 1947, Br J Pharmacol 2, 189–206).

A further data set concerns the target T2, aminopeptidase M (AmM) (Homo sapiens, UniProt P15144).
T2 construct: incubated for 60 min with 50 μl of human plasma; from tissue; host or cells: human plasma from heparinized blood of healthy male volunteers
The experiment in a line: In vitro metabolic stability against human plasma AmM. It is filed as in vitro ADME. As to conditions: male, human plasma as source of aminopeptidase M, pH 7.5, peptide 200 μM, 60 min incubation, mean ± SEM of 3, read-out: Peptide metabolism (%) Human plasma AmM. How it is done:
(§5) These assays were performed using three enzyme preparations: purified angiotensin converting enzyme (ACE; from rabbit lung), human plasma as a, source of aminopeptidase M (AmM) and human platelets as a source of aminopeptidase P (AmP).
Human plasma AmM was prepared as previously described (Gobeil et al., 1999, Hypertension, 33, 823–829). Blood (5 ml) was withdrawn from healthy normotensive male Caucasian volunteers and put into heparinized tube (200 U). Blood samples were centrifuged at 1500 rpm for 15 min in a refrigerated tabletop centrifuge. The peptide antagonists (200 μM) were placed in a PBS buffer (50 mM, pH 7.5, containing 300 mM NaCl) and incubated for 60 min with 50 μl of human plasma (total volume of the medium, 375 μl). Immersing samples into boiling water and then cooling them on ice stopped the hydrolysis reaction. Control experiments have shown that ≈70% of the kininase activity that is present in the human plasma is abolished by amastatin (1 μM) and that the incubation of Lys-[Leu^8]desArg^9BK with this enzymatic preparation led to the production of [Leu^8]desArg^9BK as detected by electrospray mass spectrometry.

Another data set addresses T3, aminopeptidase P (AmP) (Homo sapiens, UniProt Q9NQW7).
T3 construct: from tissue; host or cells: human platelets, freeze-thawed and sonicated, 43 000 x g supernatant
Description: In vitro metabolic stability against human platelets AmP. It is filed as in vitro ADME. The following applies: mean ± SEM of 3 experiments. How it is done:
as §5
Human platelet AmP was prepared as described by Maggiora et al. (1999, J Med Chem 42, 2394–2402). Human platelets (40 ml) were centrifuged at 250×g for 7 min at room temperature. The resulting supernatant was recentrifuged at 2790×g for 15 min at room temperature. Pellets were collected, resuspended in 40 ml of phosphate-buffered saline (PBS) containing 3.5% of sodium citrate, and then re-centrifuged at 2790×g for 15 min at room temperature. This washing step was repeated. Pellets were resuspended in 4 ml of PBS-sodium citrate, snap-frozen in liquid nitrogen, thawed at 37° C., sonicated briefly, and then centrifuged at 43 000×g for 2 h at 4° C. (Sorvall RC 5B, ss-34 rotor). The resulting supernatant was used for enzyme assays as described in Neugebauer et al. (Neugebauer et al. 2002, supra).

Data set [2] addresses T4, BKB1 receptor (Homo sapiens, UniProt P46663).
T4 sequence (P46663 1-353): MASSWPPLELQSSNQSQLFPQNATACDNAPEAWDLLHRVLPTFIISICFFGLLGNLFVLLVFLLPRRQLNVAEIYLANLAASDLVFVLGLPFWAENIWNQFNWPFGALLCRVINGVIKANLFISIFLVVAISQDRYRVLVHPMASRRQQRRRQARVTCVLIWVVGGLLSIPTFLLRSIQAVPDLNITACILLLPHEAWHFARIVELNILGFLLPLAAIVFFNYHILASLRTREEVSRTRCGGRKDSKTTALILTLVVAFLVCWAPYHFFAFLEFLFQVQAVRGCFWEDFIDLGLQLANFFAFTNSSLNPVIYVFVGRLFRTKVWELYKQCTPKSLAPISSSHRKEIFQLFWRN
The experiment in a line: Isolated human umbilical vein (hUV) organ bath, antagonist potency pA2. It is filed as cell-based. More on the design: the hUV that contains BKB1 and BKB2 receptors; from tissue; host or cells: isolated human umbilical vein (hUV). As to conditions: human umbilical vein treated with HOE 140; mean ± SEM of 4–7 experiments; read-out: Antagonist potencies (pA2) BKB1-R hUV (converted). The method, then:
as §1, §2, §3, §4

T3 sequence (Q9NQW7 whole entry): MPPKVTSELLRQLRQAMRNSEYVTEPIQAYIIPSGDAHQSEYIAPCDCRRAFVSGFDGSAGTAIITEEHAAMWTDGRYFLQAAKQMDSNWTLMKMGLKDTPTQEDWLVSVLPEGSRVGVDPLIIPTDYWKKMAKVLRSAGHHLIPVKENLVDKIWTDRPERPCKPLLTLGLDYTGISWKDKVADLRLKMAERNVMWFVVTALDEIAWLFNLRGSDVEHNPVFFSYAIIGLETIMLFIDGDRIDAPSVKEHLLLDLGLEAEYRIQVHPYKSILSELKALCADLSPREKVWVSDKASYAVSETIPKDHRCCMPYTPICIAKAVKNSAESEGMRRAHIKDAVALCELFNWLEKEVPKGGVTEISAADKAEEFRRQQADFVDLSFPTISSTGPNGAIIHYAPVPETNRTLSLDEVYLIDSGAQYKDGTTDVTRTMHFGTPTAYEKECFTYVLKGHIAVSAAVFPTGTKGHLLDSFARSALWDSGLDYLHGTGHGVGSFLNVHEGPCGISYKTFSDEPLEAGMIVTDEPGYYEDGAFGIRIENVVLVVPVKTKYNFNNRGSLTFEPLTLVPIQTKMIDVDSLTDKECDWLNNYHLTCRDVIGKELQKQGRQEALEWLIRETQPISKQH
T2 sequence (P15144 whole entry): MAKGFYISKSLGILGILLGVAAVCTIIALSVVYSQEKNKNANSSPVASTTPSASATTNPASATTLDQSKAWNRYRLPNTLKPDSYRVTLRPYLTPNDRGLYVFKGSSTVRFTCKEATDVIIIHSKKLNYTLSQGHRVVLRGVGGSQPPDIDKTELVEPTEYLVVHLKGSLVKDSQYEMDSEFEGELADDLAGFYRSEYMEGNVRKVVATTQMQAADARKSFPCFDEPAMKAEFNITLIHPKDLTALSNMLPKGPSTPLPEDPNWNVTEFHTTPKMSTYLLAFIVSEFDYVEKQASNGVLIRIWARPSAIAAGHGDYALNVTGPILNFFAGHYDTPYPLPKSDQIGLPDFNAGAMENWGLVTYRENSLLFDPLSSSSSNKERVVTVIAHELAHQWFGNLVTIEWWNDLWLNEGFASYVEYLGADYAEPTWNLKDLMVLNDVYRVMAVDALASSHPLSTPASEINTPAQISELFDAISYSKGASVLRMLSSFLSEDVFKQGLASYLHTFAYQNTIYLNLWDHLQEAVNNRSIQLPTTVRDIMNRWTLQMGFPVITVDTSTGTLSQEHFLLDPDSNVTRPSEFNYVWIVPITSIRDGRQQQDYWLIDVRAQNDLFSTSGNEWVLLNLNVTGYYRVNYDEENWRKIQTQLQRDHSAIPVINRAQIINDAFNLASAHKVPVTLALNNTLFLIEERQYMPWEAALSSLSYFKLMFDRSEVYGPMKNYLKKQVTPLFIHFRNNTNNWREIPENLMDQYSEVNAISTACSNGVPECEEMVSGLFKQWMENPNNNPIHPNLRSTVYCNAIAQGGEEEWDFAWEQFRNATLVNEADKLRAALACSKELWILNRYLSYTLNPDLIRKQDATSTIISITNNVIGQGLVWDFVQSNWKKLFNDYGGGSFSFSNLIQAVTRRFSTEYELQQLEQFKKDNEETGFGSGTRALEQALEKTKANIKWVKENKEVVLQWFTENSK

For the compound `CC[C@H](C)[C@H](NC(=O)[C@@H](Cc1ccc2ccccc2c1)NC(=O)[C@H](CO)NC(=O)[C@](C)(Cc1ccccc1)NC(=O)CNC(=O)[C@@H]1CCCN1C(=O)[C@@H]1C[C@@H]2CCCC[C@@H]2N1C(=O)[C@H](CCCNC(=N)N)NC(=O)[C@H](CCCN)NC(C)=O)C(=O)O` [compound c, Ac-Orn[Oic^2,(α-Me)Phe^5,D-βNal^7,Ile^8]desArg^9BK] (Ac-[Orn]R[Oic]PG[αMeF]S[d2Nal]I-OH), the Kb is 2.29 nM at BKB1 receptor [1] and 3.47 nM at BKB1 receptor [2]. Also, the metabolised at 1 h, 200 µM on aminopeptidase M (AmM) worked out at 0%. Also, the “Peptide metabolism (%) Human platelets AmP” value on aminopeptidase P (AmP) was 12 ± 2%.

As to `CC[C@H](C)[C@H](NC(=O)[C@@H](Cc1ccc2ccccc2c1)NC(=O)[C@H](CO)NC(=O)[C@](C)(Cc1ccccc1)NC(=O)CNC(=O)[C@@H]1CCCN1C(=O)[C@@H]1C[C@@H]2CCCC[C@@H]2N1C(=O)[C@H](CCCNC(=N)N)NC(=O)[C@H](CCCCN)NC(C)=O)C(=O)O` [Ac-Lys[Oic^2,(α-Me)Phe^5,D-βNal^7,Ile^8]desArg^9BK] (Ac-KR[Oic]PG[αMeF]S[d2Nal]I-OH), the results for the Kb at BKB1 receptor [1] and on BKB1 receptor [2] were 3.16 nM and 3.72 nM, respectively. The metabolised at 1 h, 200 µM on aminopeptidase M (AmM) came out at 0%. The “Peptide metabolism (%) Human platelets AmP” value at aminopeptidase P (AmP) came to 12 ± 4%.

Source of the values: patent US7211566B2 (Universite De Sherbrooke, priority 2003, dated 2007).
